Assay results: patent US20070117858A1, “SUBSTITUTED 5-HETEROARYL-1-PHENYL-PYRAZOLE CANNABINOID MODULATORS” (priority 2005, published 2007)

Assays:
human CB1 receptor = molecular target: T1, human CB1 receptor (Homo sapiens, UniProt P21554); test: Cannabinoid CB1 receptor binding assay ([3H]-CP-55,940 displacement, SK-N-MC cell membranes); conditions: for inhibition at 0.2 µM: 1.5 h, read-out: Cannabinoid CB1 Receptor Binding, percent inhibition
T1 construct: expressed in transfected cells; host or cells: SK-N-MC cells, stably transfected with pcDNA3 CB-1 (human); semi-purified membrane pellet
T1 sequence (P21554 whole entry): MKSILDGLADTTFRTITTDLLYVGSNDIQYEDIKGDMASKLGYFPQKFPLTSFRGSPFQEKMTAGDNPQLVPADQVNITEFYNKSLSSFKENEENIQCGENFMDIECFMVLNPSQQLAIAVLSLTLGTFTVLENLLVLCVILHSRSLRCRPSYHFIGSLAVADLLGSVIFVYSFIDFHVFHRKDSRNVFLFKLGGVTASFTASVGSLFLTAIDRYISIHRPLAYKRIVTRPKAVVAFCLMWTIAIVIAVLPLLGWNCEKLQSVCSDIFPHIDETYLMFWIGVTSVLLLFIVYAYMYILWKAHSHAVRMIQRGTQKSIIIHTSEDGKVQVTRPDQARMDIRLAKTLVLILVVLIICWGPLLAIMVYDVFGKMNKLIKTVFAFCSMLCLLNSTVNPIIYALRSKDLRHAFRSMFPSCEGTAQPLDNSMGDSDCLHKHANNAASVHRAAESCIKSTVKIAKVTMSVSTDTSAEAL
Method: (§1) Binding Assay for CB1 or CB2 Agonists or Inverse Agonists
(§2) The human CB1 and CB2 receptors were stably expressed in SK-N-MC cells transfected with pcDNA3 CB-1 (human) or pcDNA3 CB-2 (human). The cells were grown in T-180 cell culture flasks under standard cell culture conditions at 37° C. in a 5% CO2 atmosphere. The cells were harvested by trysinization and homogenized in a homogenization buffer (10 mM Tris, 0.2 mM MgCl2, 5 mM KCl, with protease inhibitors aprotinin, leupeptin, pepstatin A and bacitracin) and centrifuged (2000 g). The supernatant was then centrifuged in 2M sucrose (31,300 g) to produce a semi-purified membrane pellet. The pellet was resuspended in homogenization and stored at −80° C.
(§3) On the day of the assay, the pellet was thawed on ice and diluted in assay buffer (50 mM Tris-HCl, 5 mM MgCl2, 2.5 mM EDTA, 0.5 mg/mL fatty acid free bovine serum albumin, pH 7.5). The diluted membrane pellet was added with buffer, either a test compound or vehicle standard and the radioligand […] (0.2 nM) to the wells of a 96-well polypropylene plate. Non-specific binding was measured in wells containing W1N 55,212 (10 uM). The plate was covered and incubated for 90 minutes at 30° C. The contents were then aspirated onto a Packard Unifilter GF/C filter bottom plate prewet with 0.5% polyethyleneimine. The wells of the polypropylene plate were rinsed and aspirated seven times with a 0.9% saline-0.5% Tween 20 solution. The Unifilter plate was dried, scintillation cocktail was added to each well and the counts representing binding were quantitated in a TopCount scintillation counter.
(§4) For compounds tested, an IC50 binding value was obtained from percent inhibition studies in which various test concentrations were used. The binding value was calculated by linear regression.
(§5) For compounds without an IC50 binding value, the percent inhibition (%) was obtained at a test concentration of 0.2 μM.

human CB2 receptor = molecular target: T2, human CB2 receptor (Homo sapiens, UniProt P34972); test: Cannabinoid CB2 receptor binding assay ([3H]-CP-55,940 displacement, SK-N-MC cell membranes); conditions: 1.5 h; test concentration of 0.2 μM; radioligand CP-55,940 0.2 nM; read-out: Cannabinoid CB2 Receptor Binding, percent inhibition
T2 construct: expressed in transfected cells; host or cells: SK-N-MC cells, stably transfected with pcDNA3 CB-2 (human); semi-purified membrane pellet
T2 sequence (P34972 whole entry): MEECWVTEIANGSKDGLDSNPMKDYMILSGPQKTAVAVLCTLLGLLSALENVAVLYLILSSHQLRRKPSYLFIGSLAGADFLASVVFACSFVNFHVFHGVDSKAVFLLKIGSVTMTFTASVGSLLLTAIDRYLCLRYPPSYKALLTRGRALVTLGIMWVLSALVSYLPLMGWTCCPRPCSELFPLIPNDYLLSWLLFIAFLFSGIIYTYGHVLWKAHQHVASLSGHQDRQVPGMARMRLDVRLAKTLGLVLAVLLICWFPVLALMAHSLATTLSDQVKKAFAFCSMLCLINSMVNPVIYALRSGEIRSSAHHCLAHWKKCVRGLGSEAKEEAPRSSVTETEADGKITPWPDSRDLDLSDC
Method: as §1, §2, §3, §4, §5

SMILES	inhibition at 0.2 µM (human CB1 receptor)	inhibition at 0.2 µM (human CB2 receptor)	IC50 (human CB1 receptor; from percent inhibition studies at various test concentrations, calculated by linear regression, radioligand CP-55,940 0.2 nM, read-out: Cannabinoid CB1 Receptor Binding, IC50 binding value)
Cc1c(C(=O)N[C@@H](C)C2CCCCC2)nn(-c2ccc(Cl)cc2Cl)c1-c1cc(Br)cs1 [Cpd 48, 5-(4-bromo-thiophen-2-yl)-1-(2,4-dichloro-phenyl)-4-methyl-1H-pyrazole-3-carboxylic acid [(1S)-1-cyclohexyl-ethyl]-amide]	60%	49%	–
Cc1c(C(=O)N[C@H](C)c2ccccc2)nn(-c2ccc(Cl)cc2Cl)c1-c1cc(Br)cs1 [Cpd 49, 5-(4-bromo-thiophen-2-yl)-1-(2,4-dichloro-phenyl)-4-methyl-1H-pyrazole-3-carboxylic acid [(1R)-1-phenyl-ethyl]-amide]	76%	63%	–
CCc1c(C(=O)N2CCC(O)CC2)nn(-c2ccc(Cl)cc2Cl)c1-c1ccc(Br)s1 [Cpd 50, [5-(5-bromo-thiophen-2-yl)-1-(2,4-dichloro-phenyl)-4-ethyl-1H-pyrazol-3-yl]-(4-hydroxy-piperidin-1-yl)-methanone]	28%	17%	–
CCc1c(C(=O)NN2CCC(O)CC2)nn(-c2ccc(Cl)cc2Cl)c1-c1ccc(Br)s1 [Cpd 51, 5-(5-bromo-thiophen-2-yl)-1-(2,4-dichloro-phenyl)-4-ethyl-1H-pyrazole-3-carboxylic acid (4-hydroxy-piperidin-1-yl)-amide]	63%	13%	–
CCc1c(C(=O)N[N+]2(C)CCCCC2)nn(-c2ccc(Cl)cc2Cl)c1-c1ccc(Br)s1 [Cpd 52, 1-{[5-(5-bromo-thiophen-2-yl)-1-(2,4-dichloro-phenyl)-4-ethyl-1H-pyrazole-3-carbonyl]-amino}-1-methyl-piperidinium]	51%	0%	–
Cc1ccc(-c2c(C)c(C(=O)NN3CCCCC3)nn2-c2ccc(Cl)cc2Cl)o1 [Cpd 53, 1-(2,4-dichloro-phenyl)-4-methyl-5-(5-methyl-furan-2-yl)-1H-pyrazole-3-carboxylic acid piperidin-1-ylamide]	40%	21%	–
Cc1ccc(-c2c(C)c(C(=O)N[C@@H](C)c3ccccc3)nn2-c2ccc(Cl)cc2Cl)o1 [Cpd 54, 1-(2,4-dichloro-phenyl)-4-methyl-5-(5-methyl-furan-2-yl)-1H-pyrazole-3-carboxylic acid [(1S)-1-phenyl-ethyl]-amide]	–	52%	140 nM
Cc1ccc(-c2c(C)c(C(=O)N[C@H](C)c3ccccc3)nn2-c2ccc(Cl)cc2Cl)o1 [Cpd 55, 1-(2,4-dichloro-phenyl)-4-methyl-5-(5-methyl-furan-2-yl)-1H-pyrazole-3-carboxylic acid [(1R)-1-phenyl-ethyl]-amide]	58%	30%	–
Cc1ccc(-c2c(C)c(C(=O)N[C@H](C)c3ccccn3)nn2-c2ccc(Cl)cc2Cl)o1 [Cpd 56, 1-(2,4-dichloro-phenyl)-4-methyl-5-(5-methyl-furan-2-yl)-1H-pyrazole-3-carboxylic acid [(1R)-1-pyridin-2-yl-ethyl]-amide]	41%	26%	–
Cc1ccc(-c2c(C)c(C(=O)N[C@H](C)C3CCCCC3)nn2-c2ccc(Cl)cc2Cl)o1 [Cpd 57, 1-(2,4-dichloro-phenyl)-4-methyl-5-(5-methyl-furan-2-yl)-1H-pyrazole-3-carboxylic acid [(1R)-1-cyclohexyl-ethyl]-amide]	46%	28%	–
